In PMC9898755 (The Journal of Biological Chemistry, 2023) one finds inhibition data, which are given here for 1 molecule.

As a reminder, the inhibition is the share of the control response that was lost under treatment.

The target of one test is T1, Sec14^V155F (Saccharomyces cerevisiae, UniProt P24280, V155F).
T1 sequence (P24280 2-304 V155F): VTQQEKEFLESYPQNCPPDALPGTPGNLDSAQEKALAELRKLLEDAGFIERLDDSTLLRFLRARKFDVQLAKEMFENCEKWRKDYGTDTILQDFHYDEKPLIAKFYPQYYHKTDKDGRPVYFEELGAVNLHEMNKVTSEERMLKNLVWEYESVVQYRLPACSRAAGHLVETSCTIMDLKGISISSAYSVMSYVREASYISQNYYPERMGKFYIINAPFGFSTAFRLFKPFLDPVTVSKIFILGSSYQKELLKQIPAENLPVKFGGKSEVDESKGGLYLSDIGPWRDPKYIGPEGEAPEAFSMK
As to the kind of experiment: [3H]-PtdIns-transfer assay, […] PITP, […] himbacine, […] inhibition. It is filed as biochemical. The following applies: read-out: % inhibition at 20 μM.

The next test deals with T2, Sec14^V154F (Saccharomyces cerevisiae, UniProt P24280, V154F).
T2 sequence (P24280 2-304 V154F): T1 sequence (P24280 2-304 V155F)
Described as above. It is filed as biochemical. The following applies: read-out: % inhibition at 20 μM.

For the molecule `C[C@@H]1OC(=O)[C@H]2C[C@H]3CCCC[C@@H]3[C@@H](/C=C/[C@H]3CCC[C@H](C)N3C)[C@@H]12` [himbacine], the inhibition at 20 µM at Sec14^V155F came to 73 ± 2.1%; at Sec14^V154F, 71 ± 1.2%.
